Assay results from paper PMC8000185 (International Journal of Molecular Sciences, 2021).
Several values for one entry are separate records, joined by “and”; a condition that tells them apart may be missing. Equal values may be shown once. Read-outs that look alike come from different tables or passages of the source.

How the values were obtained:
NHE1 [1] = molecular target: T1, NHE1 (Homo sapiens, UniProt P19634); experiment: Plate-based NHE1 inhibition assay (BCECF pHi recovery, 96-well plate reader); format: cell-based
T1 construct: endogenous in cells; host or cells: MDA-MB-231
T1 sequence (P19634 whole entry): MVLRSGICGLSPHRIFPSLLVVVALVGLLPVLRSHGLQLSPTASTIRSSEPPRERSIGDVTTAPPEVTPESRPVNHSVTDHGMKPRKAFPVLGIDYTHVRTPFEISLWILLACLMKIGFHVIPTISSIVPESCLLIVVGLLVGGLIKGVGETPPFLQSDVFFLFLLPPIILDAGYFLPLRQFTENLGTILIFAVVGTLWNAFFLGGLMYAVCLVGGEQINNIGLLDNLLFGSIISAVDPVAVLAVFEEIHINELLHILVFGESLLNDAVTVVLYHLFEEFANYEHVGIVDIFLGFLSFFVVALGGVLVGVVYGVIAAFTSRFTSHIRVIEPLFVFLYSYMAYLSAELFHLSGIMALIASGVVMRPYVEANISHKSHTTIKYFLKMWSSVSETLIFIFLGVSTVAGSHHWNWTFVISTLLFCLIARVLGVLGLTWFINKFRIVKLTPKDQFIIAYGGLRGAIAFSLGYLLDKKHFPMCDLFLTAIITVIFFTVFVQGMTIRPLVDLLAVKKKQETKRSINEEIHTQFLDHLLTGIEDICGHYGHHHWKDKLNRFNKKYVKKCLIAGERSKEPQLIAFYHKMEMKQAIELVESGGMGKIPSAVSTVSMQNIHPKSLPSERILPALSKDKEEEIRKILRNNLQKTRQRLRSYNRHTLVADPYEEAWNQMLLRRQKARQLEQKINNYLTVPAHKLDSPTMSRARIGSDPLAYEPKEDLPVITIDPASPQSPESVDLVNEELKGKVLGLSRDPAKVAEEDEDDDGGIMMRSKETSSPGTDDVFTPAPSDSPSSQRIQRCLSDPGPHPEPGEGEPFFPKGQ
Description: To perform NHE1 screening with increased throughput, we adapted the conventional cuvette-based NHE1 activity assay to a simple new 96-well plate format using MDA-MB-231 cells that were compatible with common laboratory fluorescence plate readers (see Section 4 for details).
Culture media were removed and replaced with 200 µL 0.2% FBS-containing media with incubation for 3–4 h to stimulate NHE1 activity, followed by incubation for 30 min in the presence of 5 µM 2′,7′-bis(carboxyethyl)-5(6)-carboxyfluorescein-acetoxymethyl ester (BCECF-AM, cat #ab143463, Abcam, Cambridge, United Kingdom). Cells were then washed with 100 µL/well Na^+-free acid-load buffer: 10 mM NH4Cl, 1.8 mM CaCl2, 90 mM N-methyl-D-glucamine (from 1 M stock titrated to pH 7.4 with HCl), 5 mM glucose, 15 mM HEPES, 5 mM KCl, 1 mM MgCl2 (pH 7.5, adjusted with KOH), and incubated at 37 °C for a further 30 min. Acid-load buffer was removed and replaced with Na^+-containing assay buffer: 100 mM NaCl, 1.8 mM CaCl2, 5 mM glucose, 15 mM HEPES, 5 mM KCl, 1 mM MgCl2 containing serial dilution of each compound or DMSO vehicle, and changes in fluorescence were read immediately using a BMG Labtech POLARstar OMEGA (BMG Labtech GmbH, Offenburg, Germany) plate reader according to the parameters in Table S1. Compounds were tested at n = 3 technical replicates per concentration per plate. BCECF-AM-free cells were treated with matched concentrations of each compound to correct for intrinsic fluorescence. DMSO was present in all wells at a final concentration of 1% v/v. Inhibition of NHE1-mediated pHi recovery was determined by ratiometric calculation of the change in blank-corrected pH-sensitive fluorescence divided by the isobestic fluorescence for each well over time. […] (0% activity) controls present on each plate. IC50 values were determined through fitting of Log-10 transformed data using the “log(inhibitor) versus normalised response–variable slope” non-linear function in GraphPad PRISM v8.0 software package (GraphPad Software, San Diego, CA, USA).

[2] = Cell viability (cytotoxicity) assay; format: cell-based; details: human, MDA-MB-231 cells, 48 h treatment
Description: On the day of treatment, respective compounds were serially diluted using a semi-logarithmic dilution series from 20 mM stocks in neat DMSO into DMEM-high glucose media (10% v/v FBS) in a separate 96-well plate and under sterile conditions. Thereafter, 10 μL of the diluted compounds at their respective concentrations (n = 4) were added to the cells. […] Vehicle media blanks or drug blanks were also included to correct for inherent colour of the compounds and phenol red-containing media. Following 48 h treatment, 20 μL CellTitre 96® Aqueous One Solution Cell Proliferation Assay (Promega, Madison, USA) was added to each well, plates were incubated for 2 h, and absorbance was measured at 490 nm using a SpectraMax Plus 384-well plate reader (Molecular Devices LLC, San Jose, USA) and Softmax PRO v7.0 software. Blank-corrected data were analysed and graphed using GraphPad PRISM v8.0 software (GraphPad Software, San Diego, CA USA).

NHE1 [3] = details: read-out: NHE1 IC50 (literature); cited from earlier work
[4] = molecular target: T2, urokinase from human kidney cells (human uPA) (Homo sapiens, UniProt P00749); experiment: uPA inhibition assay (fluorescence-based, purified enzyme); format: biochemical; details: for uPA selectivity ratio: uPA over NHE1
T2 construct: low molecular weight active human uPA; purchased Sigma-Aldrich U4010; host or cells: human kidney cells

NHE1 [5] = molecular target: T1, NHE1; experiment: Cuvette-based NHE1 inhibition assay; format: cell-based
Description: Performed as described in [53]. Briefly, MDA-MB-231 cells were grown to ~80–90% confluence on glass coverslips. Then, 3 µM BCECF were loaded into cells in 400 µL serum-free medium and the fluorescence was measured using a PTI Deltascan spectrofluorometer (Horiba Ltd., Kyoto, Japan). […] A calibration curve of pHi fluorescence was performed for every sample using nigericin [55]. […] IC50 values were determined through fitting of Log-10 transformed data using the “log(inhibitor) versus normalised response–variable slope” non-linear function in GraphPad PRISM v8.0 software package (GraphPad Software, San Diego, USA).

[6] = molecular target: T3, MDA-MB-231 cell-surface uPA (HMW human active uPA bound to uPAR) (Homo sapiens, UniProt P00749); experiment: Cell-surface uPA activity assay; format: cell-based; details: average ± SEM from four independent assays
T3 construct: pre-incubated with active high molecular weight (HMW) uPA; purchased Molecular Innovations HTC-UPA; host or cells: added to MDA-MB-231 cells (endogenous uPAR)
Description: Having identified non-cytotoxic compounds with the desired target selectivity profiles, we then sought to confirm their uPA inhibitory activities in a more physiologically relevant, whole-cell assay. To this end, the fluorogenic biochemical assay was modified to allow measurement of cell-surface uPA activity in MDA-MB-231 cells, which are known to express uPAR [38, 39]. To maximise enzymatic activity, the cells were pre-incubated with active high molecular weight (HMW) uPA to saturate unoccupied uPAR present at the cell surface.
MDA-MB-231 cells were seeded into Greiner CELLSTAR black 96-well plates (Greiner Bio-one, cat #655079) at density 10,000 cells/well in a volume of 100 µL media and cultured for 48 h. On the day of the experiment, cell culture media were removed via shakeout, followed by washing with 100 µL 1 × Dulbecco’s PBS/1 mM CaCl2/1 mM MgCl2/0.1% protease-free bovine serum albumin/pH 7.4 wash buffer. Cells were then incubated in the presence of 25 nM HMW human active uPA (Molecular Innovations, San Diego, CA, USA, SKU: HTC-UPA) in wash buffer for 30 min at RT. Unbound HMW uPA was removed via washing twice with 100 µL wash buffer. […] Plates were read immediately following the addition of substrate using a POLARstar OMEGA fluorescence plate reader (BMG Labtech GmbH, Offenburg, Germany) according to the parameters in Table S1.

ENaC = details: previously showed; cited from earlier work
[7] = previously showed; cited from earlier work
[8] = test system: orthotopic xenograft model of pancreatic ductal adenocaricinoma; details: pancreatic ductal adenocarcinoma; cited from earlier work
[9] = 1 μM, MDA-MB-231 cells, plate reader
[10] = MDA-MB-231 cells, plate-reader assay, read-out: NHE1 Plate reader IC50
[11] = purified enzyme, Z-Gly-Gly-Arg-AMC substrate, number in parentheses after value, read-out: uPA IC50
[12] = plate-reader value as printed in nM in text, read-out: NHE1 IC50
[13] = MDA-MB-231 cells, cuvette assay, read-out: NHE1 Cuvette IC50

| Compound | inhibition at 1 µM (NHE1 [1]; [9]) | inhibition at 10 µM (NHE1 [1]; MDA-MB-231 cells, plate reader) | IC50 at 48 h [2] | IC50 (NHE1 [3]) | IC50 ([4]; human uPA, fluorometric method, Figure S1, read-out: uPA IC50 (not reached at the highest concentration tested)) | IC50 (NHE1 [1]; Figure S1 representative curve, n = 3 technical replicates, read-out: NHE1 IC50 of curve shown, plate reader assay) | IC50 (NHE1 [1]; [10]) | IC50 (NHE1 [5]; Figure S1, n = 6 technical replicates/concentration, read-out: NHE1 IC50, cuvette assay) | IC50 [4, 11] | uPA selectivity ratio [4] | IC50 (NHE1 [1]; [12]) | IC50 (NHE1 [5]; [13]) | IC50 [6] | ENaC activity in vitro (ENaC) | K+-sparing or diuretic effects in vivo [7] | NHE1 Inhibition (%) 1 μM (NHE1 [1]; [9]) | drop in NHE1 potency relative to unsubstituted 24 (NHE1 [1]; IC50 measurements) | anti-metastatic properties [8] | NHE1 selectivity ratio (selectivity over uPA) (NHE1 [1]) |
| --- | --- | --- | --- | --- | --- | --- | --- | --- | --- | --- | --- | --- | --- | --- | --- | --- | --- | --- | --- |
| N=C(N)NC(=O)c1nc(Cl)c(N)nc1N [AML, Amiloride, reference compound] | 7% | 64% | > 100 µM | […] | – | – | – | – | – | – | – | – | – | – | – | – | – | – | – |
| CC(=O)N1CCC(c2ccc(C(=O)NC(=N)N)cc2C(F)(F)F)CC1 [BI-9627, reference compound] | – | – | – | 6 nM | > 50 µM | 1.4 nM | 3 ± 0.8 nM | 7.5 nM | – | – | – | – | – | – | – | – | – | – | – |
| N=C(N)NC(=O)c1nc(-c2cncnc2)c(N2CCCCCC2)nc1N [compound 24] | 80% | 96% | > 100 µM | – | – | – | – | – | 0.175 µM and < 0.3 µM | 1.5 | 266 nM and < 300 nM | 397 nM | 130 ± 10 nM | no ENaC activity | no K^+-sparing or diuretic effects | – | – | – | – |
| COc1ncc(-c2nc(C(=O)NC(=N)N)c(N)nc2N2CCCCCC2)cn1 [compound 26] | 0% | 72% | > 100 µM | – | – | – | – | – | 0.086 µM | 143 | 12300 nM | 21500 nM | 149 ± 14 nM | no ENaC activity | no K^+-sparing or diuretic effects | no activity | ~ 46 fold | anti-metastatic properties | – |
| N=C(N)NC(=O)c1nc(Cl)c(N2CCOCC2)nc1N [compound 29] | 85% | 100% | > 100 µM | – | – | – | – | – | 10.9 µM | – | 129 nM | 166 nM | – | – | – | – | – | – | 85 fold |
| N=C(N)NC(=O)c1nc(Cl)c(N2CCCOCC2)nc1N [compound 30] | 91% | 100% | 95.6 µM | – | – | – | – | – | 5.72 µM | – | 85 nM | 93 nM | – | – | – | – | – | – | 67 fold |
| N=C(N)NC(=O)c1nc(-c2ccc(C(F)(F)F)cc2)c(N2CCCC2)nc1N [compound 39] | 95% | 100% | 23.9 µM | – | – | – | 605 ± 134 nM | – | 6.19 µM | – | – | 441 nM | – | – | – | – | – | – | – |
